Experimental data taken from US8993523B2, “Dimeric IAP inhibitors” (Novartis AG, priority 2010, dated 2015).
pEC50, pIC50: −log10 of the molar value.

Tests used:
Panc3.27 tumor cells = experiment: Cellular assay: Panc3.27 tumor cell proliferation (Cell Titer Glo); type: cell-based; conditions: Panc3.27 cells, 72 hour treatment, read-out: PANC proliferation IC50
Method: Cellular Assay—Treatment of Panc3.27 Tumor Cells with Dimeric IAP Antagonists
On day one adherent Panc3.27 cells are plated into two 96-well, clear, flat bottom plates. All wells in row A contain 90 uL of media. All wells in rows B-G contain a total volume of 90 uL per well and 4000 cells per well for Panc3.27 cell lines. Plates are then incubated overnight for 18 hours at 37° C., 5% CO2.
On day two cells are treated with the compounds of formula M-L-M′. Treatments are done in triplicate. The compounds are first serially diluted in DMSO and then added to media giving a final concentration of 0.2% DMSO when added to cells. Cells are treated with 10 uL of serially diluted compounds of formula M-L-M′ at a final concentration of 1000 nM, 200 nM, 40 nM, 8 nM, 1.6 nM, 0.32 nM, 0.06 nM, 0.013 nM, 0.0026 nM, and one untreated well. Plate two is used as a time zero plate.
To measure cell viability 50 uL of Cell Titer Glo (CTG) solution is added to row A, media only and B, cells and media. CTG is purchased from Promega Corporation catalog number G7573. The solution is prepared according to manufacturer's instructions. CTG measures the amount of ATP released from viable cells that is proportional to the number of cells in each well. After incubating for ten minutes with CTG plates are measured on a luminescent reader at 700 nm wavelength. Read time is approximately one second per well for a 96-well plate.
On day five 50 uL of CTG is added to plate one, rows A-G, incubated for 10 minutes at room temperature and read on a luminescent reader. Raw data is adjusted to account for the time zero plate as well as background noise. Triplicate values are averaged and percent control growth is calculated. Percent control growth is calculated using the following logical test: If well read data point (a) is greater than time zero data point (t=0), then 100*[(a)−(t=0)]/[(72 hour total growth)−(t=0)], OR 100*[(a)−(t=0)]/[(t=0)]. Data is represented by line graph with the concentration of compound on the x axis and percent control growth on the y axis.

cIAP1-BIR3 = molecular target: T1, cIAP1-BIR3 (Homo sapiens, UniProt Q13490); experiment: Biacore SPR solution inhibition (competition with smac7mer peptide) binding assay, cIAP1-BIR3; conditions: 6 nM cIAP1-BIR3, competition with immobilised smac7mer peptide, 25° C.; read-out: CIAP-BIR3 Binding Biacore (Competitive) EC50
T1 construct: with either 100 nM XIAP-BIR3 or 6 nM cIAP1-BIR3
Description: (§1) The present method includes utility of a Surface plasmon resonance (SPR)-based biosensor (Biacore™ GE Healthcare, Uppsala, Sweden) to examine competition between the compounds of the present invention and smac7mer peptide for XIAP-BIR3 and cIAP1-BIR3 binding groove occupancy.
(§2) Biacore™ utilizes the phenomenon of surface plasmon resonance (SPR) to detect and measure binding interactions. In a typical Biacore experiment, one of the interacting molecules is immobilized on a flexible dextran matrix while the interacting partner is flowed over the derivatized surface. A binding interaction results in an increase in mass on the sensor surface and a corresponding direct change in the refractive index of the medium in the vicinity of the sensor surface. Changes in refractive index or signal are recorded in resonance units (R.U.) Signal changes due to association and dissociation of complexes are monitored in a non-invasive manner, continuously and in real-time, the results of which are reported in the form of a sensorgram.
(§3) Solution Inhibition Assay Format:
(§4) Biacore™ T100 (GE Healthcare, Uppsala, Sweden) was used to conduct all experiments reported herein. Sensor surface preparation and interaction analyses were performed at 25° C. Buffer and Biacore reagents were purchased from GE Healthcare. Running buffer containing 10 mM Hepes, pH7.4, 150 mM sodium chloride, 1.25 mM Dithiothreitol, 2% Dimethyl sulfoxide and 0.05% polysorbate 20 was utilized throughout all experiments.
(§5) Biotinylated smac7mer peptide was diluted to 10 nM in running buffer and captured onto a sensor surface pre-derivatized with streptavidin (sensor chip SA) towards peptide surface densities in the range 40-100 R.U. Peptide captured surfaces were blocked with 500 μM PEO2-Biotin (Thermo Scientific).
(§6) Interaction analyses were performed by first equilibrating each compound within a six point seven fold compound dilution series in the range 1 μM to 0.06 nM with either 100 nM XIAP-BIR3 or 6 nM cIAP1-BIR3 for at least one hour during instrument start-up procedures. Protein compound mixtures were then injected over reference and smac7mer peptide surfaces in series for 60 seconds at a flow-rate of 60 μL/min. Surface regeneration was performed at the end of each analysis cycle by a 30 second injection of 10 mM Glycine, pH 2.5, 1M Sodium Chloride, 0.05% polysorbate 20. Additionally, control compound samples and control XIAP-BIR3 or cIAP1-BIR3 samples were prepared and run at regular intervals to monitor surface and assay performance.
(§7) Data analyses were carried out using Biacore™ T100 evaluation software v2.0 to validate assay quality. Binding level report points were plotted versus logarithmic compound concentration values and analyzed in Graphpad prism 5 via non-linear regression using a one-site competition model. EC50 values were generated and used as a measure of inhibitor potency.

XIAP-BIR3 = molecular target: T2, XIAP-BIR3 (Homo sapiens, UniProt P98170); experiment: Biacore SPR solution inhibition (competition with smac7mer peptide) binding assay, XIAP-BIR3; conditions: 100 nM XIAP-BIR3, competition with immobilised smac7mer peptide, 25° C.; read-out: XIAP-BIR3 Binding Biacore (Competitive) EC50
T2 construct: with either 100 nM XIAP-BIR3 or 6 nM cIAP1-BIR3
Description: as §1, §2, §3, §4, §5, §6, §7

T1 sequence (Q13490 260-352 limits assumed): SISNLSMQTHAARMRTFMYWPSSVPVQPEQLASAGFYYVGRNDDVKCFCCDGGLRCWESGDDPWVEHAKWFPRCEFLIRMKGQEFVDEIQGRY
T2 sequence (P98170 241-356 limits assumed): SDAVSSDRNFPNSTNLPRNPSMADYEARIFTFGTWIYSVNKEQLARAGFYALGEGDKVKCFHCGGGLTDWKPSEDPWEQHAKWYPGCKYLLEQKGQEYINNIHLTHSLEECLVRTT

Compound	pIC50 (Panc3.27 tumor cells)	pEC50 (cIAP1-BIR3)	pEC50 (XIAP-BIR3)
CN[C@@H](C)C(=O)N[C@H](C(=O)N1CCC[C@H]1c1cncc(-n2cc(C(=O)N3CC4(C3)CN(C(=O)c3cn(-c5cncc([C@@H]6CCCN6C(=O)[C@@H](NC(=O)[C@H](C)NC)C(C)C)c5)c5ccccc35)C4)c3ccccc32)c1)C(C)C [Example 2N, (2S,2′S)—N,N′-((2S,2′S)-1,1′-((2S,2′S)-2,2′-(5,5′-(3,3′-(2,6-diazaspiro[3.3]heptane-2,6-diylbis(oxomethylene))bis(1H-indole-3,1-diyl))bis(pyridine-5,3-diyl))bis(pyrrolidine-2,1-diyl))bis(3-methyyl-1-oxobutane-2,1-diyl))bis(2-(methylamino)propanamide)]	8.08 to 8.15	9.17 to 9.24	7.48 to 7.49
CN[C@@H](C)C(=O)N[C@H](C(=O)N1CCC[C@H]1c1cncc(-n2cc(C(=O)NCCCCCCCCCCCNC(=O)c3cn(-c4cncc([C@@H]5CCCN5C(=O)[C@@H](NC(=O)[C@H](C)NC)C(C)C)c4)c4ccccc34)c3ccccc32)c1)C(C)C [Example 2H, (S,S,S)—N,N′-(undecane-1,11-diyl)bis(1-(5-((S)-1-((S)-3-methyl-2-((S)-2-(methylamino)propanamido)butanoyl)pyrrolidin-2-yl)pyridin-3-yl)-1H-indole-3-carboxamide)]	> 11.59	8.99 to 9.00	7.22
CN[C@@H](C)C(=O)N[C@H](C(=O)N1CCC[C@H]1c1cncc(-n2cc(C(=O)N3CCN(C(=O)c4cn(-c5cncc([C@@H]6CCCN6C(=O)[C@@H](NC(=O)[C@H](C)NC)C(C)C)c5)c5ccccc45)CC3)c3ccccc32)c1)C(C)C [Example 2O, (2S,2′S)—N,N′-((2S,2′S)-1,1′-((2S,2′S)-2,2′-(5,5′-(3,3′-(piperazine-1,4-diylbis(oxomethylene))bis(1H-indole-3,1-diyl))bis(pyridine-5,3-diyl))bis(pyrrolidine-2,1-diyl))bis(3-methyl-1-oxobutane-2,1-diyl))bis(2-(methylamino)propanamide)]	8.86 to 9.27	8.66	7.41

Results, then the molecule that gave them:

pIC50 (Panc3.27 tumor cells)	pEC50 (cIAP1-BIR3)	pEC50 (XIAP-BIR3)	Compound
8.92 to 9.74	8.94 to 8.95	7.71	CN[C@@H](C)C(=O)N[C@H](C(=O)N1CCC[C@H]1c1cncc(-n2cc(C(=O)NCCCCNC(=O)c3cn(-c4cncc([C@@H]5CCCN5C(=O)[C@@H](NC(=O)[C@H](C)NC)C(C)C)c4)c4ccccc34)c3ccccc32)c1)C(C)C [Example 2J, (S,S,S)—N,N′-(butane-1,4-diyl)bis(1-(5-((S)-1-((S)-3-methyl-2-((S)-2-(methylamino)propanamido)butanol)pyrrolidin-2-yl)pyridin-3-yl)-1H-indole-3-carboxamide)]
9.55 to 10.10	9.07 to 9.68	7.26 to 7.63	CN[C@@H](C)C(=O)N[C@H](C(=O)N1CCC[C@H]1c1cncc(-n2cc(C(=O)NCCNC(=O)c3cn(-c4cncc([C@@H]5CCCN5C(=O)[C@@H](NC(=O)[C@H](C)NC)C(C)C)c4)c4ccccc34)c3ccccc32)c1)C(C)C [Example 2F, (S,S,S)—N,N′-(ethane-1,2-diyl)bis(1-(5-((S)-1-((S)-3-methyl-2-((S)-2-(methylamino)propanamido)butanoyl)pyrrolidin-2-yl)pyridin-3-yl)-1H-indole-3-carboxamide)]
8.56 to 8.58	8.91 to 8.92	7.12	CN[C@@H](C)C(=O)N[C@H](C(=O)N1CCC[C@H]1c1cncc(-n2ccc3c(C(=O)N[C@H]4CCCC[C@@H]4NC(=O)c4cccc5c4ccn5-c4cncc([C@@H]5CCCN5C(=O)[C@@H](NC(=O)[C@H](C)NC)C(C)C)c4)cccc32)c1)C(C)C [Example 1D, (S,S,S)—N,N′-((1S,2S)-cyclohexane-1,2-diyl)bis(1-(5-((S)-1-((S)-3-methyl-2-((S)-2-(methylamino)propanamido)butanoyl)pyrrolidin-2-yl)pyridin-3-yl)-1H-indole-4-carboxamide)]
